Source: patent publication US9981963B2, “3-(1H-pyrazol-4-yl)-1H-pyrrolo[2,3-c]pyridine derivatives as NIK inhibitors” (Janssen Pharmaceutica NV, priority 2013, dated 2018)

Experiments:
[1] = molecular target: T1, Recombinant Human NF-kappaB-inducing Kinase (NIK/MAP3K14) (Homo sapiens (Human), UniProt Q99558); assay: Biological Assay A2: inhibition of auto-phosphorylation of recombinant human NIK/MAP3K14 (AlphaScreen); type: biochemical; details: 25 microM ATP, 0.2 nM GST-tagged NIK/MAP3K14, 1 h at 25° C., averaged values, read-out: Alpha-Screen IC50
Description: Inhibition of Auto-phosphorylation of Recombinant Human NF-kappaB-inducing Kinase (NIK/MAP3K14) Activity (AlphaScreen®)
NIK/MAP3K14 auto-phosphorylation activity was measured using the AlphaScreen® (αscreen) format (Perkin Elmer). All compounds tested were dissolved in dimethyl sulfoxide (DMSO) and further dilutions were made in assay buffer. Final DMSO concentration was 1% (v/v) in assays. Assay buffer was 50 mM Tris pH 7.5 containing 1 mM EGTA (ethylene glycol tetraacetic acid), 1 mM DTT (dithiothreitol), 0.1 mM Na3VO4, 5 mM MgCl2, 0.01% Tween® 20. Assays were carried out in 384 well Alphaplates (Perkin Elmer). Incubations consisted of compound, 25 microM Adenosine-5′-triphosphate (ATP), and 0.2 nM NIK/MAP3K14. Incubations were initiated by addition of GST-tagged NIK/MAP3K14 enzyme, carried out for 1 h at 25° C. and terminated by addition of stop buffer containing anti-phospho-IKK Ser176/180 antibody. Protein A Acceptor and Glutathione-Donor beads were added before reading using an EnVision® Multilabel Plate Reader (Perkin Elmer). Signal obtained in the wells containing blank samples was subtracted from all other wells and IC50's were determined by fitting a sigmoidal curve to % inhibition of control versus Log10 compound concentration.

[2] = tested on: P-IKKα levels in L363 cells; assay: Biological Assay B: effect of compounds on P-IKKα levels in L363 cells; type: cell-based; details: Homo sapiens, L-363; L363 cells with BAFF, 2 hr treatment; averaged values; read-out: IKKα Cellular IC50
Description: Effect of Compounds on P-IKKα Levels in L363 Cells
All compounds tested were dissolved in DMSO and further dilutions were made in culture medium. Final DMSO concentration was 1% (v/v) in cell assays. The human L363 cells (ATCC) were cultured in RPMI 1640 medium supplemented with GlutaMax and 10% fetal calf serum (PAA). Cells were routinely maintained at densities of 0.2×10^6 cells per ml-1×10^6 cells per ml at 37° C. in a humidified 5% CO2 atmosphere. Cells were passaged twice a week splitting back to obtain the low density. Cells were seeded in 96 well plates (Nunc 167008) at 2×10^6 per ml media in a volume of 75 μl per well plus 25 μl 1 μg/ml recombinant human B-cell activating factor (BAFF/BLyS/TNFSF13B). Seeded cells were incubated at 37° C. in a humidified 5% CO2 atmosphere for 24 hr. Drugs and/or solvents were added (20 μl) to a final volume of 120 μl. Following 2 hr treatment plates were removed from the incubator and cell lysis was achieved by the addition of 30 μl 5× lysis buffer followed by shaking on a plate shaker at 4° C. for 10 min. At the end of this incubation lysed cells were centrifuged at 800×g for 20 min at 4° C. and the lysate was assessed for P-IKKα levels by sandwich immuno-assay carried out in anti-rabbit antibody coated Mesoscale plates. Within an experiment, the results for each treatment were the mean of 2 replicate wells. For initial screening purposes, compounds were tested using an 8 point dilution curve (serial 1:3 dilutions). For each experiment, controls (containing MG132 and BAFF but no test drug) and a blank incubation (containing MG132 and BAFF and 10 μM ADS125117, a test concentration known to give full inhibition) were run in parallel. The blank incubation value was subtracted from all control and sample values. To determine the IC50 a sigmoidal curve was fitted to the plot of % inhibition of control P-IKKα levels versus Log10 compound concentration.

[3] = molecular target: T1, Recombinant Human NF-kappaB-inducing Kinase (NIK/MAP3K14); assay: Biological Assay A: inhibition of recombinant human NIK/MAP3K14 activity (MSD, MBP substrate); details: 25 μM ATP, 10 nM NIK/MAP3K14, 1 h at 25° C.; averaged over all measurements on all batches; read-out: Biochemical (MSD MBP) IC50
Description: Inhibition of Recombinant Human NF-kappaB-inducing Kinase (NIK/MAP3K14) Activity
Assay buffer was 50 mM Tris pH 7.5 containing 1 mM EGTA (ethylene glycol tetraacetic acid), 1 mM DTT (dithiothreitol), 0.1 mM Na3VO4, 5 mM MgCl2, 0.01% Tween® 20. Assays were carried out in 384 well Mesoscale high binding plates which had been coated with myelin basic protein (MBP) and blocked with bovine serum albumin to prevent non-specific protein binding. All compounds tested were dissolved in dimethyl sulfoxide (DMSO) and further dilutions were made in assay buffer. Final DMSO concentration was 1% (v/v) in assays. Incubations consisted of compound (1% DMSO in control and blank wells), 25 μM Adenosine-5′-triphosphate (ATP), and 10 nM NIK/MAP3K14 substituting enzyme with buffer in the blank wells. Incubations were carried out for 1 h at 25° C. and were followed by washing and sequential incubation with rabbit anti-phospho-MBP and anti-rabbit Ig Sulfotag antibody before reading bound Sulfotag on a Mesoscale Discovery. Signal obtained in the wells containing blank samples was subtracted from all other wells and IC50's were determined by fitting a sigmoidal curve to % inhibition of control versus Log10 compound concentration.

LP-1 cells = assay: Biological Assay C: antiproliferative activity on LP-1 cells (CellTiter-Glo); type: cell-based; details: Homo sapiens, 72 hr of treatment, averaged values
Description: (§1) Determination of Antiproliferative Activity on LP-1, L-363 and JJN-3 Cells
(§2) All compounds tested were dissolved in DMSO and further dilutions were made in culture medium. Final DMSO concentration was 0.3% (v/v) in cell proliferation assays. Viability was assessed using CellTiter-Glo cell viability assay kit (Promega). The human LP-1, L-363 and JJN-3 cells (DSMZ) were cultured in RPMI 1640 medium supplemented with 2 mM L-glutamine, and 10% fetal calf serum (PAA). Cells were routinely kept as suspension cells at 37° C. in a humidified 5% CO2 atmosphere. Cells were passaged at a seeding density of 0.2×10^6/ml twice a week. Cells were seeded in black tissue culture treated 96-well plates (Perkin Elmer). Densities used for plating ranged from 2,000 to 6,000 cells per well in a total volume of 75 μl medium. After twenty four hours, drugs and/or solvents were added (25 μl) to a final volume of 100 μl. Following 72 hr of treatment plates were removed from the incubator and allowed to equilibrate to room temperature for approx 10 min. 100 μl CellTiter-Glo reagent was added to each well that was then covered (Perkin Elmer Topseal) and shaken on plate shaker for 10 min. Luminescence was measured on a HTS Topcount (Perkin Elmer). Within an experiment, the results for each treatment were the mean of 2 replicate wells. For initial screening purposes, compounds were tested using a 9 point dilution curve (serial 1:3 dilutions). For each experiment, controls (containing no drug) and a blank incubation (containing cells read at the time of compound addition) were run in parallel. The blank value was subtracted from all control and sample values. For each sample, the mean value for cell growth (in relative light units) was expressed as a percentage of the mean value for cell growth of the control.

L-363 cells = assay: Biological Assay C: antiproliferative activity on L-363 cells (CellTiter-Glo); type: cell-based; details: Homo sapiens, 72 hr of treatment, averaged values
Description: as §1, §2

JJN-3 cells = assay: Biological Assay C: antiproliferative activity on JJN-3 cells (CellTiter-Glo); type: cell-based; details: Homo sapiens, 72 hr of treatment, averaged values
Description: as §1, §2

T1 sequence (Q99558 whole entry): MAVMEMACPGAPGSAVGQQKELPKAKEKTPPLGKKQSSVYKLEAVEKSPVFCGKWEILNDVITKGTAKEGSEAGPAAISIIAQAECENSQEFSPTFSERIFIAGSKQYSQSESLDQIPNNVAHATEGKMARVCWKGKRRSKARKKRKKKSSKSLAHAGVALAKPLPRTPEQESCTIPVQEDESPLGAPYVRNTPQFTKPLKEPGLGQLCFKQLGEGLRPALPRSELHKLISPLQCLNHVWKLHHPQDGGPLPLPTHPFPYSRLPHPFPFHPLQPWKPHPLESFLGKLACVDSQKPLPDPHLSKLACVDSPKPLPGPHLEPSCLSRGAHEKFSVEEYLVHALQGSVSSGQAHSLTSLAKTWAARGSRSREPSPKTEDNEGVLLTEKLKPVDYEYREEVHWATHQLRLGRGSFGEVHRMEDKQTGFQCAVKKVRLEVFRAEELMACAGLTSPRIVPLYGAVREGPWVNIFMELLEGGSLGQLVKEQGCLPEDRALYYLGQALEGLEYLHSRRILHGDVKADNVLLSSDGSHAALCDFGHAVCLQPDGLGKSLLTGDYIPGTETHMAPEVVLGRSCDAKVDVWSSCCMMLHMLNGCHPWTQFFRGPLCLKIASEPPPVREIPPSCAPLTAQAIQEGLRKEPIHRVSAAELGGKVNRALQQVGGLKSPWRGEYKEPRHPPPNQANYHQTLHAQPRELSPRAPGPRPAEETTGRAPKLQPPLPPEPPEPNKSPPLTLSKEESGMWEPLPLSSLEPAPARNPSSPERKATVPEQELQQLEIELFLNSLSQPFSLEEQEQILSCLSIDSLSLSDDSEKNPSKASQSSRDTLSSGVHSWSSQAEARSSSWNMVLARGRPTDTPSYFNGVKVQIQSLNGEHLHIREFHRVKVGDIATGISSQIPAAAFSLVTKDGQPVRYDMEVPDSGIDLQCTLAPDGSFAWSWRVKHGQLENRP

SMILES	IC50 [1]	IC50 [2]	IC50 [3]	EC50 (LP-1 cells)	EC50 (L-363 cells)	EC50 (JJN-3 cells)
CC(C)n1cc(-c2cn[nH]c2)c2cc(C#CC(C)(C)O)ncc21 [Compound 11]	21 nM	20 nM	6 nM	0.916 µM	283 nM	258 nM
CCC(CC)n1cc(-c2cn[nH]c2)c2cc(C#CC(C)(C)O)ncc21 [Compound 24]	65 nM	191 nM	48 nM	0.647 µM	519 nM	744 nM
CN1CCC(n2cc(-c3c[nH]nc3Cl)c3cc(C#CC(C)(C)O)ncc32)CC1 [Compound 41]	79 nM	–	–	6.11 µM	478 nM	1310 nM
CCn1cc(-c2c[nH]nc2N)c2cc(C#CC(C)(C)O)ncc21 [Compound 3]	28 nM	173 nM	58 nM	7.24 µM	4040 nM	2370 nM
COCCn1cc(-c2cn[nH]c2)c2cc(C#CC(C)(C)O)ncc21 [Compound 16]	99 nM	523 nM	92 nM	20.4 µM	3140 nM	4050 nM
[2H]c1n[nH]c([2H])c1-c1cn(C2CCN(C)CC2)c2c(C)nc(C#CC(O)(C([2H])([2H])[2H])C([2H])([2H])[2H])cc12 [Compound 44]	84 nM	–	–	1.54 µM	269 nM	391 nM
CCn1c(C#N)c(-c2cn[nH]c2)c2cc(C#CC(C)(C)O)ncc21 [Compound 39]	47 nM	–	–	8 µM	3920 nM	4610 nM
CCn1cc(-c2cn[nH]c2)c2cc(C#CC(C)O)ncc21 (stereo not drawn) [Compound 46]	13 nM	–	–	0.709 µM	343 nM	530 nM
CC(C)(O)C#Cc1cc2c(-c3cn[nH]c3)cn(CC3COC3)c2cn1 [Compound 17]	69 nM	418 nM	88 nM	> 30 µM	11900 nM	5860 nM
CCn1cc(-c2cn[nH]c2)c2cc(C#CC(C)(O)C3CC3)ncc21 (single isomer, unassigned) [Compound 49]	14 nM	–	–	1.7 µM	861 nM	1300 nM
CC(C)(O)Cn1cc(-c2cn[nH]c2)c2cc(C#CC(C)(O)c3nccs3)ncc21 (stereo not drawn) [Compound 15]	43 nM	47 nM	10 nM	> 30 µM	> 30000 nM	3850 nM
CC(C)CS(=O)(=O)n1cc(-c2cn[nH]c2)c2cc(C#CC(C)(C)O)ncc21 [Compound 26]	141 nM	–	–	5.02 µM	3330 nM	3870 nM
